{
  "source": "paper PMC11264232",
  "about": "“Are the metal identity and stoichiometry of metal complexes important for colchicine site binding and inhibition of tubulin polymerization?” (Dalton Transactions (Cambridge, England : 2003), 2024)",
  "key": {"[1]": {"tested_on": "A549 human lung adenocarcinoma cells", "assay": "MTT viability assay, 24 h", "details": "read-out: IC50 values A549; A549 cells, 24 h, MTT assay", "method": "We wanted to compare the cytotoxicity of proligands HL^1–HL^3 and of their Co(III) and Fe(III) complexes 1, 2 and 4, 5 on cell lines originating from the same tissue, so human lung carcinoma A549 cells and lung fibroblast MRC-5 cells were subjected to 24 h treatments.\nThe biological effects of selected metal complexes (1, 2, 4 and 5) and of their proligands (HL^1, HL^2 and HL^3) were tested more extensively on A549 human lung adenocarcinoma cells and on MRC-5 human lung fibroblast cells. Both cell lines were obtained from ATCC and maintained in DMEM cell culture media containing 1.0 g L^−1 glucose (Biosera, Nuaille, France) complemented with 10% fetal bovine serum (FBS), 2 mM L-glutamine, 0.01% streptomycin and 0.005% penicillin and were cultured under standard conditions in a 37 °C incubator at 5% CO2 and 95% humidity. The viability of A549 and of MRC-5 fibroblast cells upon exposure to the selected metal–ligand complexes and ligands were evaluated by the MTT assay. For this, 10 000 cells per well were seeded into 96-well plates and left to grow. On the next day the cells were exposed to 0, 5, 10, 20, 40 or 80 μM of each compound or to an equivalent volume of DMSO for 24 h. After the treatments, cells were washed with PBS and then were incubated with 0.5 mg mL^−1 MTT reagent (Sigma-Aldrich, St Louis, Missouri, USA) for 1 h at 37 °C. Finally, 100 μL of DMSO (Molar Chemicals, Halásztelek, Hungary) was added to each well, and the absorbance of samples was measured at 570 nm using a Synergy HTX plate reader (BioTek, Winooski, Vermont, USA). The viability measurements were repeated three times using 3 independent biological replicates."}, "[2]": {"assay": "Cyclic voltammetry in DMSO/nBu4NPF6", "format": "physicochemical", "details": "scan rate 100 mV s^−1", "description": "Cyclic voltammetric experiments with 0.5 mM solutions of 1–3 in 0.1 M nBu4NPF6 (puriss quality from Fluka (Schwerte, Germany), dried under reduced pressure at 70 °C for 24 h before use) supporting electrolyte in DMSO (SeccoSolv max. 0.025% H2O, Merck) were performed under argon atmosphere using a three-electrode setup with a platinum disk or a glassy carbon disk working electrode (from Ionode, Australia), platinum wire as a counter electrode, and silver wire as a pseudo reference electrode. All potentials in voltammetric studies were quoted vs. ferricenium/ferrocene (Fc^+/Fc) redox couple. A Heka PG310USB (Lambrecht, Germany) potentiostat with a PotMaster 2.73 software package served for the potential control in voltammetric studies. In situ ultraviolet-visible-near-infrared (UV–Vis–NIR) spectroscopic and spectroelectrochemical measurements were performed on a spectrometer Avantes (Model AvaSpec-2048_14-USB2) in 1 cm quartz cuvette or the spectroelectrochemical cell kit ([…]3) with the Pt-microstructured honeycomb working electrode, purchased from Pine Research Instrumentation (Lyon, France). The cell was positioned in the CUV-UV Cuvette Holder (Ocean Optics, Ostfildern, Germany) connected to the diode-array UV–Vis–NIR spectrometer by optical fibres. UV–Vis–NIR spectra were processed using the AvaSoft 7.7 software package. Halogen and deuterium lamps were used as light sources (Avantes, Model AvaLight-DH-S-BAL, Apeldoorn, The Netherlands). EPR spectra were measured with a X-band cw-EPR spectrometers EMX and EMX plus (Bruker) at room temperature or 100 K. Spectroelectrochemical experiments were performed in a flat cell equipped with a Pt mesh working electrode using nBu4NPF6/DMSO electrolyte. Measurements in frozen solvent glass were done in MeCN/DMF 1 : 1 v/v. Complexes 4 and 5 were dissolved under ambient conditions, and complex 3 was reduced with a stoichiometric equivalent of cobaltocene in a N2 glovebox (N2 < 2 ppm, H2O < 1 ppm). The MeCN/DMF solutions were flash frozen in liquid N2 prior to transfer to the N2 flow cryostat precooled at 100 K inside the cavity of the EPR resonator. EPR spectra were analyzed with the Easyspin toolbox,[75] running on Matlab."}, "[3]": {"tested_on": "MOLT-4", "assay": "NCI-60 five-dose screen", "format": "cell-based, human", "details": "Leukemia", "method": "(§2) This evaluation involved the utilization of the NCI 60 human tumor cell line panel.[57]\n(§3) The NCI-60 SRB assay was performed as described previously.[76] GI50 values (the concentration of the metal complex causing 50% growth inhibition), TGI value (the concentration of the complex causing 0% cell growth), and LC50 (the concentration of the complex causing 50% cell death) were interpolated from dose–response curves that were plots of percentage cell growth versus concentration of test compounds."}, "[4]": {"tested_on": "SNB-75", "assay": "NCI-60 five-dose screen", "format": "cell-based, human", "details": "CNS cancer", "quoted_text": "(§4) The proligands HL^1–HL^3 and their corresponding metal complexes 1–8 prepared in this study were subjected to evaluation of their anticancer potential, including selectivity towards specific types of cancer: leukemia, non-small cell lung (NSCLC), colon, central nervous system (CNS), melanoma, ovarian, renal, prostate and breast cancers, by the National Cancer Institute's Developmental Therapeutics Program. This evaluation involved the utilization of the NCI 60 human tumor cell line panel.[57]\nas §3"}, "[5]": {"assay": "Solution stability by UV–vis spectrophotometry", "format": "physicochemical"}, "[6]": {"tested_on": "HCC-2998", "assay": "NCI-60 five-dose screen", "format": "cell-based, human", "details": "Colon cancer", "quoted_text": "as §4, §3"}, "[7]": {"assay": "Reduction by glutathione (GSH), UV–vis", "format": "physicochemical", "details": "pH 7.4, glove box", "from_the_text": "The reduction of complexes 1, 2, 4 and 5 by glutathione (GSH), one of the major cellular reductants, was investigated at pH 7.4 by recording UV–vis spectra in a glove box."}, "[8]": {"tested_on": "K-562", "assay": "NCI-60 five-dose screen", "format": "cell-based, human", "details": "Leukemia", "method": "as §2, §3"}, "[9]": {"tested_on": "NCI/ADR-RES", "assay": "NCI-60 five-dose screen", "format": "cell-based, human", "details": "Ovarian cancer", "quoted_text": "as §4, §3"}, "[10]": {"tested_on": "HOP-62", "assay": "NCI-60 five-dose screen", "format": "cell-based, human", "details": "Non-Small Cell Lung Cancer", "quoted_text": "as §4, §3"}, "[11]": {"tested_on": "OVCAR-8", "assay": "NCI-60 five-dose screen", "format": "cell-based, human", "details": "Ovarian cancer", "quoted_text": "as §4, §3"}, "[12]": {"tested_on": "COLO 205", "assay": "NCI-60 five-dose screen", "format": "cell-based, human", "details": "Colon cancer", "quoted_text": "as §4, §3"}, "[13]": {"tested_on": "RXF 393", "assay": "NCI-60 five-dose screen", "format": "cell-based, human", "details": "Renal cancer", "quoted_text": "as §4, §3"}, "[14]": {"tested_on": "HL-60(TB)", "assay": "NCI-60 five-dose screen", "format": "cell-based, human", "details": "Leukemia"}, "[15]": {"tested_on": "OVCAR-4", "assay": "NCI-60 five-dose screen", "format": "cell-based, human", "details": "Ovarian cancer", "quoted_text": "as §4, §3"}, "[16]": {"tested_on": "PC-3", "assay": "NCI-60 five-dose screen", "format": "cell-based, human", "details": "Prostate cancer", "quoted_text": "(§5) GI50 values (the concentration of the metal complex causing 50% growth inhibition), TGI value (the concentration of the complex causing 0% cell growth), and LC50 (the concentration of the complex causing 50% cell death) were interpolated from dose–response curves that were plots of percentage cell growth versus concentration of test compounds."}, "[17]": {"tested_on": "A549 cells", "assay": "BrdU incorporation assay", "details": "10 μM, 24 h", "method": "To test directly the antiproliferative activity of the proligands and of their Co(III) and Fe(III) complexes on A549 cancer cells, non-toxic concentrations of the compounds were applied to the cells, then the 5-bromo-2′-deoxy-uridine (BrdU) incorporation assay was performed (Fig. 10).\nThe effect of proligands HL^1–HL^3 and of metal complexes 1, 2 and 4, 5 on the proliferation of A549 cells was investigated by the BrdU assay (5-bromo-2′-deoxyuridine Labeling and Detection Kit I, Roche, Cat. No. 11 296 736 001). For this, 3 × 10^4 cells were seeded onto glass coverslips that were placed on 24-well plates, and the cells were left to grow overnight. Next day, when the cells reached about 50% confluence, the samples were treated with 10 μM of each compound or with an equivalent volume of DMSO for 24 h. At this point, BrdU labeling solution was added in a 1 : 1000 dilution, and the incubation continued for 30 min. Then the cells were fixed using 70% ethanol in 50 mM glycine (pH 2.0), and immunofluorescence of adherent cells was measured following the manufacturer's instructions. BrdU incorporation was visualized using an Olympus FV10i confocal microscope."}, "[18]": {"tested_on": "IGROV1", "assay": "NCI-60 five-dose screen", "format": "cell-based, human", "details": "Ovarian cancer", "quoted_text": "as §4, §3"}, "[19]": {"tested_on": "HCT-116", "assay": "NCI-60 five-dose screen", "format": "cell-based, human", "details": "Colon cancer", "quoted_text": "as §4, §3"}, "[20]": {"tested_on": "CCRF-CEM", "assay": "NCI-60 five-dose screen", "format": "cell-based, human", "details": "Leukemia", "quoted_text": "as §4, §3"}, "[21]": {"tested_on": "OVCAR-3", "assay": "NCI-60 five-dose screen", "format": "cell-based, human", "details": "Ovarian cancer", "quoted_text": "as §4, §3"}, "[22]": {"tested_on": "HCT-15", "assay": "NCI-60 five-dose screen", "format": "cell-based, human", "details": "Colon cancer", "quoted_text": "as §4, §3"}, "[23]": {"tested_on": "purified tubulin", "assay": "Inhibition of tubulin polymerization", "format": "biochemical", "details": "read-out: Inhibition of tubulin polymerization IC50 ± SD", "from_the_text": "As a reference for comparison, combretastatin A-4 (CA-4) and Cu(HL^1)Cl2 were used.\n(§1) The methods used for determination of the IC50 values for tubulin assembly and inhibition of [^3H]colchicine binding were as described previously.[77]"}, "[24]": {"tested_on": "SF-295", "assay": "NCI-60 five-dose screen", "format": "cell-based, human", "details": "CNS cancer", "quoted_text": "as §4, §5"}, "[25]": {"tested_on": "SF-268", "assay": "NCI-60 five-dose screen", "format": "cell-based, human", "details": "CNS cancer", "quoted_text": "as §4, §5"}, "[26]": {"tested_on": "tubulin (colchicine site)", "assay": "Inhibition of [3H]colchicine binding to tubulin", "details": "tubulin 0.5 μM, [3H]colchicine 5 μM", "from_the_text": "as §1"}, "[27]": {"tested_on": "NCI-H522", "assay": "NCI-60 five-dose screen", "format": "cell-based, human", "details": "Non-Small Cell Lung Cancer", "quoted_text": "as §4, §3"}, "[28]": {"tested_on": "NCI-H322M", "assay": "NCI-60 five-dose screen", "format": "cell-based, human", "details": "Non-Small Cell Lung Cancer", "quoted_text": "as §4, §3"}},
  "note": "Where “and” joins values, the source holds several entries; their conditions need not be identical. Equal entries are not always repeated. Marks after values point to notes of the source that are not given here.",
  "data": [
    {"smiles": "CC(=NN=C([S-])Nc1cc(C)c(O)c(C)c1)c1cccc(CN2CCOCC2)n1.CC(=NN=C([S-])Nc1cc(C)c(O)c(C)c1)c1cccc(CN2CCOCC2)n1.O=[N+]([O-])[O-].[Fe+3]", "note": "[Complex 4, [Fe^III(L^2)2]NO3]", "values": [
      {"measurement": "IC50", "setting": "[1]", "result": "14 to 17 µM and 17 µM"},
      {"measurement": "1st oxidation potential (peak potential Ep)", "setting": "[2]", "result": "0.40^i* volts vs. Fc^+/Fc"},
      {"measurement": "1st reduction potential (E1/2 or Ep)", "setting": "[2]", "result": "−0.35^r volts vs. Fc^+/Fc"},
      {"measurement": "2nd reduction potential (E1/2 or Ep)", "setting": "[2]", "result": "−1.85^q volts vs. Fc^+/Fc"},
      {"measurement": "GI50", "setting": "[3]", "result": 2.72, "unit": "µM"},
      {"measurement": "GI50", "setting": "[4]", "result": 1.58, "unit": "µM"},
      {"measurement": "stability of Fe(III) complexes", "setting": "[5]; DMSO and water at pH 7.4", "result": "slow partial dissociation"},
      {"measurement": "stability of Fe(III) complexes", "setting": "[5]; pH 2", "result": "complete dissociation"},
      {"measurement": "stability of Fe(III) complexes", "setting": "[5]; pH 11.7, anoxic conditions", "result": "the changes were minimal"},
      {"measurement": "GI50", "setting": "[6]", "result": 2.73, "unit": "µM"},
      {"measurement": "reduction by glutathione (GSH)", "setting": "[7]", "result": "reduction by GSH"},
      {"measurement": "GI50", "setting": "[8]", "result": 2, "unit": "µM"},
      {"measurement": "GI50", "setting": "[9]", "result": 2.98, "unit": "µM"},
      {"measurement": "GI50", "setting": "[10]", "result": 2.97, "unit": "µM"},
      {"measurement": "GI50", "setting": "[11]", "result": 2.5, "unit": "µM"},
      {"measurement": "GI50", "setting": "[12]", "result": 1.53, "unit": "µM"},
      {"measurement": "GI50", "setting": "[13]", "result": 1.95, "unit": "µM"},
      {"measurement": "GI50", "setting": "[14]", "result": 1.41, "unit": "µM"},
      {"measurement": "GI50", "setting": "[15]", "result": 3.25, "unit": "µM"},
      {"measurement": "GI50", "setting": "[16]", "result": 2.43, "unit": "µM"},
      {"measurement": "A549 cell proliferation (BrdU incorporation)", "setting": "[17]", "result": "significantly less BrdU incorporation"},
      {"measurement": "GI50", "setting": "[18]", "result": 3.27, "unit": "µM"},
      {"measurement": "GI50", "setting": "[19]", "result": 2.3, "unit": "µM"},
      {"measurement": "GI50", "setting": "[20]", "result": 2.22, "unit": "µM"},
      {"measurement": "GI50", "setting": "[21]", "result": 1.99, "unit": "µM"},
      {"measurement": "GI50", "setting": "[22]", "result": 2.36, "unit": "µM"},
      {"measurement": "IC50", "setting": "[23]", "result": "3.4 ± 0.06", "unit": "µM"},
      {"measurement": "GI50", "setting": "[24]", "result": 1.94, "unit": "µM"},
      {"measurement": "GI50", "setting": "[25]", "result": 2.36, "unit": "µM"},
      {"measurement": "Inhibition of colchicine binding, % inhibition ± SD", "setting": "[26]; 5 μM inhibitor", "result": "3.4 ± 5", "unit": "%"},
      {"measurement": "Inhibition of colchicine binding, % inhibition ± SD", "setting": "[26]; 25 μM inhibitor", "result": "17 ± 4", "unit": "%"},
      {"measurement": "GI50", "setting": "[27]", "result": 2.07, "unit": "µM"},
      {"measurement": "GI50", "setting": "[28]", "result": 3.26, "unit": "µM"}
    ]}
  ]
}
